Measurements: ChEMBL document CHEMBL1201862, “PubChem BioAssay data set” (2004)
Calls of active or inactive are those of the source. Where a SMILES comes first, the peptide text is derived from it. The star is where a group is joined. CH2Cl = ClC*

How the values were obtained:
[1] = target: T1, Sentrin-specific protease 7 (Homo sapiens, UniProt Q9BQF6); assay type: functional;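 further: Luminescence-based dose-response confirmation of ultra-high-throughput screening hits, measuring inhibition of SENP7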
T1 sequence (Q9BQF6 whole entry): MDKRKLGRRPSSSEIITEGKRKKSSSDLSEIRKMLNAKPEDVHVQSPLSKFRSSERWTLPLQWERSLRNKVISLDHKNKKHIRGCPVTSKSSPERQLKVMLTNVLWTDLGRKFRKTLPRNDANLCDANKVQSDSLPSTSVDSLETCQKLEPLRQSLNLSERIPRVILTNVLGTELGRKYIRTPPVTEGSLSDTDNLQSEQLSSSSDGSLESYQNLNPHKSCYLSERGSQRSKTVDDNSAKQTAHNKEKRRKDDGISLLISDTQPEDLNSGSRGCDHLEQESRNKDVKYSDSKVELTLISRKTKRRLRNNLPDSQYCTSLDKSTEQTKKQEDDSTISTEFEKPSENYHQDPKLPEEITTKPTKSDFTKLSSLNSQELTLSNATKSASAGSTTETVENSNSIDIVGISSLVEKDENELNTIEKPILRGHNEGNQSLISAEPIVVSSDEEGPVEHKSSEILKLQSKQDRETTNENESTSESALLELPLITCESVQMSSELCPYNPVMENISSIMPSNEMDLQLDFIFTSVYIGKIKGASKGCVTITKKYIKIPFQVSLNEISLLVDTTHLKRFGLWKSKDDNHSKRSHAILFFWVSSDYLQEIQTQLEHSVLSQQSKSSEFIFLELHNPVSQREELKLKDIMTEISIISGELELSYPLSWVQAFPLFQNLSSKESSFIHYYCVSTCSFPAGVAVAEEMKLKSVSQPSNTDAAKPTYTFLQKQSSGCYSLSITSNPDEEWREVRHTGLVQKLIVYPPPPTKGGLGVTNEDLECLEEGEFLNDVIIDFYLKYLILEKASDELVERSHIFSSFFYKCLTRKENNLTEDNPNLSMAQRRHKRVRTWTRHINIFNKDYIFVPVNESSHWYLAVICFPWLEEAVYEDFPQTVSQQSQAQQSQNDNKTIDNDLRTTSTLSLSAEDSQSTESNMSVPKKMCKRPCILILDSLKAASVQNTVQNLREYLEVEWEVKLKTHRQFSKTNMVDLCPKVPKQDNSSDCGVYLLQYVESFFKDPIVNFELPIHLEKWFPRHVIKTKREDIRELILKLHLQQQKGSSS

[2] = target: T2, Sentrin-specific protease 8 (Homo sapiens, UniProt Q96LD8); assay type: functional;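 further: luminescence read-out of SENP8 inhibition, dose-response confirmation following an ultra-high-throughput screen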
T2 sequence (Q96LD8 whole entry): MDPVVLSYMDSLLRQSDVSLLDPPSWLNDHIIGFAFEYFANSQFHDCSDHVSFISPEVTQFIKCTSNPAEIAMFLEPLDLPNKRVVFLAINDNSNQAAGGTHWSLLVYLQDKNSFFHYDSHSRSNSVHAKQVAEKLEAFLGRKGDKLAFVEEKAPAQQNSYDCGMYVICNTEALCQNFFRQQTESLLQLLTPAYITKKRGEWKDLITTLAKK

[3] = target: T3, Sentrin-specific protease 6 (Homo sapiens, UniProt Q9GZR1); assay type: functional;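 further: Luminescence-based dose-response confirmatory assay of SENP6 inhibition, following up an ultra-high-throughput screen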
T3 sequence (Q9GZR1 whole entry): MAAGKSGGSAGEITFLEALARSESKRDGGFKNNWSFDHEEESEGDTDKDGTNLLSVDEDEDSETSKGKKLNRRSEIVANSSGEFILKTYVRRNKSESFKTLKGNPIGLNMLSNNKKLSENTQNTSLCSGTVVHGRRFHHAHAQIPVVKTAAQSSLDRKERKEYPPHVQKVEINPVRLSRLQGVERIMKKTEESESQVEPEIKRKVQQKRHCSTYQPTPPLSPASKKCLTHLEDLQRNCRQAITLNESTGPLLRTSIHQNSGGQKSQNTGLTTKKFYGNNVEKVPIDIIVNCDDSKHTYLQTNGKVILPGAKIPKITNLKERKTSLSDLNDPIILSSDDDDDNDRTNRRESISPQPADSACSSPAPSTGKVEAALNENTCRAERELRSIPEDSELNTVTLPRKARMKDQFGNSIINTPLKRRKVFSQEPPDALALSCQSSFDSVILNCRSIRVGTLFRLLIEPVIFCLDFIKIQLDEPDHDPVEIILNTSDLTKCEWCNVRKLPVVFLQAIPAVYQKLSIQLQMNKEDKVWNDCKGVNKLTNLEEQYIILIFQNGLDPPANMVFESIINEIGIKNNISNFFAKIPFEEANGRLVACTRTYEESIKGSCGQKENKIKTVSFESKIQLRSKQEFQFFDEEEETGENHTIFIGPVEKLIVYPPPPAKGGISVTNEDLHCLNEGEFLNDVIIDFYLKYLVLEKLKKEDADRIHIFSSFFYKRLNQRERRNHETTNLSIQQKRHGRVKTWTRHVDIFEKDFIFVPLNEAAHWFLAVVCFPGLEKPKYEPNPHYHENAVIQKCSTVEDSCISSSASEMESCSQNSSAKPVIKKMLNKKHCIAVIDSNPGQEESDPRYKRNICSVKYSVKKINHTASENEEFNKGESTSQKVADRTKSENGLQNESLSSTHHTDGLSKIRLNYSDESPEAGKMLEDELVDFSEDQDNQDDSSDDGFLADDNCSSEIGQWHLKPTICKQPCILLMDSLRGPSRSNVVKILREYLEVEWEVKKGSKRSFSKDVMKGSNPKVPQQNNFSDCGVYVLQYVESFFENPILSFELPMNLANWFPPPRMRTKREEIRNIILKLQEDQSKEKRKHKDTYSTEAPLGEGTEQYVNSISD

Caspase-3 = target: T4, Caspase-3 (Homo sapiens, UniProt P42574); assay type: functional;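 further: Dose-response selectivity test against caspase-3 for candidate inhibitors of sentrin-specific proteases (SENPs)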
T4 sequence (P42574 whole entry): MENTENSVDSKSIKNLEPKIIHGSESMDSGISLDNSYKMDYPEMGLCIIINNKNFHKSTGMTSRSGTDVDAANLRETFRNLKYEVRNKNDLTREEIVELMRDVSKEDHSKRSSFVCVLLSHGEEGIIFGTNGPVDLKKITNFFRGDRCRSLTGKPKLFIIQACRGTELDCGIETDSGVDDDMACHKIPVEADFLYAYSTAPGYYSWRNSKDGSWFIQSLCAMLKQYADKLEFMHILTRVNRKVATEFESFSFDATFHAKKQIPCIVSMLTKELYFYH

HeLa = assay: ATP-based viability loss in HeLa cells – cell-based, CellTiter-Glo luminescence, cherry-pick samples, cytotoxicity control for MITF activator project, dose response (AID 540259); assay type: functional; settings: Homo sapiens
BJ [4] = assay: cells; assay type: functional, cell-based; settings: Homo sapiens
BJ [5] = assay: growth inhibition of engineered Ras-driven BJ cells – cell-based, alamar blue fluorescence, cherrypicked samples, dose response (AID 2631); assay type: functional; settings: Homo sapiens;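 further: confirmatory dose-response assay in RAS-dependent BJ fibroblasts engineered with TERT, LT and ST, with cytotoxicity read by fluorescence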
[6] = NIH-3T3 fibroblast cytotoxicity, dose response, cytotoxicity control, cell-based, fluorescence, Alamar Blue, secondary assay (AID 2327); assay type: functional;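 further: NIH-3T3 mouse fibroblasts cultured with fluconazole at 8 µg/mL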
cells [7] = assay type: functional, cell-based
[8] = DRD fibroblast viability loss – cell-based, non-viral oncogenic, luminescence, dose response (AID 1934); assay type: functional; settings: Homo sapiens
INS1 = assay: INS-1E survival protection against cytokine death – cell-based, luminescence, retest, dose response (AID 449756); assay type: functional; settings: Rattus norvegicus;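 further: cell death triggered by IL-1 beta plus TNF-alpha plus IFN-gamma mixture; protective hits raise ATP signal compared with cytokine alone wells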
BJ [9] = assay: BJ-TERT-LT-ST fibroblast viability loss – cell-based, RAS-independent, luminescence, dose response (AID 1935); assay type: functional; settings: Homo sapiens;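 further: BJ fibroblasts immortalized with TERT plus LT and ST oncogenes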
[10] = fluconazole-exposed Candida albicans growth modulators – fluorescence, retest, confirmation (AID 2467); assay type: functional, cell-based
cells [11] = assay type: functional, cell-based; remark: listed apart in the source
BJ [12] = assay: BJ-TERT fibroblast viability loss – cell-based, RAS-independent, luminescence, dose response (AID 1933); assay type: functional; settings: Homo sapiens
[13] = HEK-293T viability loss after treatment – luminescence, T-cell screen hits, cytotoxicity control for TCR NF-kB inhibitor project, dose response (AID 489026); assay type: functional, cell-based;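 further: cells exposed to compound about 14 hours before the viability readout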
[14] = reduction of Shn3 3'UTR-driven luciferase in osteoblasts – cell-based, Clone20 osteoblasts, firefly luciferase, cherry-picked, dose response (AID 624132); assay type: functional;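 further: firefly luciferase luminescence from reporter carrying the Shn3 3'UTR in osteoblasts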
[15] = luciferase reporter signal suppression in cells – H4 neuroglioma cells, luminescence, dose response (AID 1990); assay type: functional, cell-based
[16] = loss of viability in HepG2 cells – cell-based, CellTiter-Glo, cherry-picked, cytotoxicity control for Shn3 inhibitor project, dose response (AID 624134); assay type: functional
[17] = non-specific 3'UTR reporter inhibition in Clone20-Shn3RL – cell-based, Renilla luciferase, cherry-picked, counter-screen for Shn3 inhibitor project, dose response (AID 624133); assay type: functional
[18] = alpha-synuclein stem-loop luciferase translation blockers – H4 neuroglioma cells, luminescence, confirmation (AID 1988); assay type: functional, cell-based
[19] = microbe, parasite or virus in culture; assay type: functional; settings: Mycobacterium tuberculosis
[20] = Luminescence Cell-Based Dose Response HTS to Identify Inhibitors of 5'UTR Stem-Loop Driven Prion Protein mRNA Translation in H4 Neuroglioblastoma Cells. [Related pubchem assays: 1827 (Project Summary), 1813 (Primary HTS)]; assay type: functional
Interleukin-8 [21] = target: T5, Interleukin-8 (Homo sapiens, UniProt P10145); assay: Dose Response confirmation of uHTS small molecule hits for cystic fibrosis induced NFkb Inhibitors in a PAF-induced IL8 counterscreen.; assay type: functional; settings: read-out: IC50_Mean
T5 sequence (P10145 whole entry): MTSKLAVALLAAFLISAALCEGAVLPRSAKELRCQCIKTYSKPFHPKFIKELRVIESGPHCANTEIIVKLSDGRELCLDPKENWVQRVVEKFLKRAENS

Interleukin-8 [22] = target: T5, Interleukin-8; assay: Dose Response confirmation of uHTS small molecule hits for cystic fibrosis induced NFkb Inhibitors in a TNFa-induced IL8 counterscreen.; assay type: functional; settings: read-out: IC50_Mean
[23] = target: T6, Latent membrane protein 1 (Human herpesvirus 4 (strain B95-8), UniProt P03230); assay: LMP1 TES1 pathway selectivity over dsRED control – imaging, HEK293T, dual-color eGFP/dsRED, cherry-picks, selectivity assay for LMP1 NF-kB inhibitor project, dose response (AID 588398); assay type: functional, cell-based
T6 sequence (P03230 whole entry): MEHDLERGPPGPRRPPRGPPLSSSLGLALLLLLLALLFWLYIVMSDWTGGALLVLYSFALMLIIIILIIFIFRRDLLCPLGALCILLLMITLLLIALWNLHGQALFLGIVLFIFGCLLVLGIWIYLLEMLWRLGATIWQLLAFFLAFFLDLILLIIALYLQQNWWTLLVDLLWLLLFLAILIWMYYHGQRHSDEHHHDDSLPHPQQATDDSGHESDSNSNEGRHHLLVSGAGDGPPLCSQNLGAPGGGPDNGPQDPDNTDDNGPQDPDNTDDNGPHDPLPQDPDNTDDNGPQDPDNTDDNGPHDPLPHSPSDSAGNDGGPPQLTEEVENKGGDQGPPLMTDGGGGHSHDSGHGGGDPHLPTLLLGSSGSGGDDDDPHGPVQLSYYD

HEK293 = assay: EBV LMP1 TES2 canonical NF-kB signalling blockers – cell-based, HEK293, luciferase, cherry-pick, dose response (AID 588343); assay type: functional; settings: Homo sapiens

For `CC(C)NC(=O)c1ccc2c3n(nc2c1)-c1ccc(Cl)cc1CO3`, the IC50 [1] was 18.4 µM (active), the IC50 [2] was 69.3 µM (active) and the IC50 [3] was 81.8 µM (active). For the same molecule, the IC50 (Caspase-3) was 24 µM (active) and the AC50 (HeLa) was 50.7 µM (active).
In the case of `Oc1cnnc(N/N=C/c2ccccn2)n1`, the EC50 (BJ [4]) is reported as 4.19 µM (active), the EC50 (BJ [5]) is reported as 798 nM (active) and the EC50 [6] is reported as 2.5 µM (inconclusive). The EC50 (cells [7]) was > 350 µM (not active), the EC50 [8] was 6.35 µM (active) and the AC50 (INS1) was 1.37 µM (active). For the same molecule, the EC50 (BJ [9]) was 6.06 µM (active), the EC50 [10] was 1.26 µM (active) and the EC50 (cells [11]) was 7.62 µM (active). For the same molecule, the EC50 (BJ [12]) was 7.32 µM (active).
With `COc1cc(C2c3cc4c(cc3C(OC3OC5COC(c6cccs6)OC5C(O)C3O)C3COC(=O)C23)OCO4)cc(OC)c1O` (stereo not drawn) the EC50 (BJ [4]) was 5.79 µM (inconclusive), the IC50 [13] was > 80 µM (inactive) and the EC50 (BJ [5]) was 428 nM (active). The AC50 [14] was 1.11 µM (active), the EC50 [15] was 5.15 µM (active) and the AC50 [16] was 14.3 µM (active). The EC50 [8] was 8.49 µM (inconclusive), the EC50 (BJ [9]) was 4.24 µM (active) and the AC50 [17] was 1.28 µM (active). For the same molecule, the EC50 [18] was < 100 nM (active), the CC50 [19] was 16.5 µM (active) and the EC50 (BJ [12]) was 6.51 µM (inconclusive). The EC50 [20] was 15.5 µM (active).
With `CC(=O)NC(CC(C)C)C(=O)NC(Cc1ccccc1)C(=O)CCl` (stereo not drawn) (Ac-Leu-Phe-CH2Cl; configuration not given here) the IC50 (Interleukin-8 [21]) was 1.04 µM (active) and the IC50 (Interleukin-8 [22]) was 3.63 µM (active).
In the case of `COc1ccc2[nH]c(C(=O)N/N=C/c3ccc(O)cc3O)cc2c1`, the EC50 (BJ [4]) is reported as 10.8 µM (active), the AC50 [23] is reported as 20.3 µM (active) and the EC50 [8] is reported as 9.2 µM (inconclusive). For the same molecule, the AC50 (INS1) was 0.694 µM (active), the EC50 (BJ [9]) was 10.1 µM (inconclusive) and the EC50 (cells [11]) was 9.59 µM (active). For the same molecule, the AC50 (HEK293) was 7.59 µM (active) and the EC50 (BJ [12]) was 12.2 µM (active).
